Conditions: Liquid

CCCCCCCCCCn1cc[n+](C)c1.O=S(=O)([N-]S(=O)(=O)C(F)(F)F)C(F)(F)F
mass density [kg/m3]
Conditions | 100 kPa | 2500 kPa | 5000 kPa | 7500 kPa | 10000 kPa | 15000 kPa | 20000 kPa | 25000 kPa | 30000 kPa | 35000 kPa
293.15 K | 1282.4 | 1285.6 | 1287.4 | 1289.3 | 1291.1 | 1294.6 | 1298.1 | 1301.4 | 1304.7 | 1308
298.15 K | 1278 | 1280.8 | 1282.7 | 1284.6 | 1286.4 | 1290 | 1293.5 | 1297 | 1300.3 | 1303.6
303.15 K | 1273.6 | 1276.4 | 1278.3 | 1280.3 | 1282.1 | 1285.8 | 1289.4 | 1292.9 | 1296.3 | 1299.6
313.15 K | 1265.3 | 1267.3 | 1269.3 | 1271.3 | 1273.2 | 1277 | 1280.7 | 1284.2 | 1287.7 | 1291.1
333.15 K | 1245.5 | 1247.7 | 1249.8 | 1251.9 | 1254 | 1258 | 1261.9 | 1265.7 | 1269.4 | 1273
353.15 K | 1228.6 | 1230.9 | 1233.2 | 1235.5 | 1237.6 | 1242 | 1246.2 | 1250.2 | 1254.1 | 1257.9
373.15 K | 1209.6 | 1212.4 | 1214.8 | 1217.3 | 1219.6 | 1224.2 | 1228.6 | 1232.9 | 1237 | 1241.1
393.15 K | 1191.8 | 1195.8 | 1198.3 | 1200.9 | 1203.4 | 1208.2 | 1212.8 | 1217.3 | 1221.7 | 1225.9

CCn1cc[n+](CC)c1.O=S(=O)([N-]S(=O)(=O)C(F)(F)F)C(F)(F)F [1,3-diethylimidazolium bis[(trifluoromethyl)sulfonyl]imide]
mass density [kg/m3]
Conditions | 100 kPa | 2500 kPa | 5000 kPa | 7500 kPa | 10000 kPa | 15000 kPa | 20000 kPa | 25000 kPa | 30000 kPa | 35000 kPa
293.15 K | 1469.2 | 1471.1 | 1473.1 | 1475 | 1476.9 | 1480.8 | 1484.2 | 1487.9 | 1491.5 | 1495.2
298.15 K | 1463.2 | 1465.5 | 1467.6 | 1469.5 | 1471.4 | 1475.3 | 1479 | 1482.5 | 1486.1 | 1489.5
303.15 K | 1457.7 | 1460.1 | 1462.1 | 1463.9 | 1466.1 | 1469.8 | 1473.6 | 1477.1 | 1480.9 | 1484.3
313.15 K | 1447.3 | 1449.6 | 1451.6 | 1453.7 | 1455.8 | 1459.7 | 1463.5 | 1467.2 | 1470.9 | 1474.6
333.15 K | 1425.7 | 1428.2 | 1430.4 | 1432.6 | 1434.8 | 1439.1 | 1443.2 | 1447.2 | 1450.9 | 1454.8
353.15 K | 1404.5 | 1407.5 | 1409.9 | 1412.2 | 1414.5 | 1419 | 1423.4 | 1427.5 | 1431.6 | 1435.6
373.15 K | 1384.1 | 1386.9 | 1389.5 | 1391.9 | 1394.4 | 1399.1 | 1403.7 | 1408.1 | 1412.4 | 1416.7
393.15 K | 1364.2 | 1367.2 | 1369.9 | 1372.5 | 1375.1 | 1380.2 | 1384.9 | 1389.6 | 1394.3 | 1398.6

CCOS(=O)(=O)[O-].CCn1cc[n+](C)c1 [1-ethyl-3-methylimidazolium ethyl sulfate]
mass density [kg/m3]
Conditions | 100 kPa | 2500 kPa | 5000 kPa | 7500 kPa | 10000 kPa | 15000 kPa | 20000 kPa | 25000 kPa | 30000 kPa | 35000 kPa
293.15 K | 1246.9 | 1249 | 1250.2 | 1251.3 | 1252.3 | 1254.3 | 1256.5 | 1258.5 | 1260.5 | 1262.4
298.15 K | 1244.3 | 1245.2 | 1246.3 | 1247.4 | 1248.4 | 1250.6 | 1252.7 | 1254.8 | 1256.6 | 1258.7
303.15 K | 1240.8 | 1241.6 | 1242.7 | 1243.8 | 1244.9 | 1247 | 1249.1 | 1251.1 | 1253.2 | 1255.2
313.15 K | 1233.1 | 1234 | 1235.1 | 1236.2 | 1237.3 | 1239.5 | 1241.6 | 1243.7 | 1245.8 | 1247.9
333.15 K | 1218.3 | 1219.2 | 1220.4 | 1221.6 | 1222.7 | 1225 | 1227.2 | 1229.3 | 1231.5 | 1233.6
353.15 K | 1204.2 | 1205.3 | 1206.6 | 1207.8 | 1209 | 1211.4 | 1213.8 | 1216.1 | 1218.4 | 1220.6
373.15 K | 1190.1 | 1191.3 | 1192.6 | 1193.9 | 1195.2 | 1197.7 | 1200.2 | 1202.6 | 1204.9 | 1207.3
393.15 K | 1176.6 | 1178 | 1179.3 | 1180.7 | 1182 | 1184.6 | 1187.2 | 1189.7 | 1192.2 | 1194.6

CCn1cc[n+](C)c1.COS(=O)(=O)[O-] [1-ethyl-3-methylimidazolium methylsulfate]
mass density [kg/m3]
Conditions | 100 kPa | 2500 kPa | 5000 kPa | 7500 kPa | 10000 kPa | 15000 kPa | 20000 kPa | 25000 kPa | 30000 kPa | 35000 kPa
293.15 K | 1292.1 | 1293 | 1294 | 1295 | 1296 | 1298 | 1299.9 | 1301.8 | 1303.7 | 1305.6
298.15 K | 1288 | 1289.1 | 1290.1 | 1291.1 | 1292.1 | 1294.1 | 1296.1 | 1298 | 1300 | 1301.9
303.15 K | 1283.3 | 1284.3 | 1285.4 | 1286.4 | 1287.4 | 1289.5 | 1291.4 | 1293.4 | 1295.3 | 1297.3
313.15 K | 1276.6 | 1277.8 | 1278.9 | 1279.9 | 1281 | 1283 | 1285.1 | 1287.1 | 1289.1 | 1291.1
333.15 K | 1260.9 | 1262.3 | 1263.4 | 1264.5 | 1265.6 | 1267.8 | 1269.9 | 1272 | 1274 | 1276.1
353.15 K | 1245.5 | 1247.5 | 1248.7 | 1249.9 | 1251.1 | 1253.4 | 1255.6 | 1257.8 | 1260 | 1262.2
373.15 K | 1231.4 | 1232.8 | 1234 | 1235.2 | 1236.4 | 1238.8 | 1241.2 | 1243.5 | 1245.7 | 1248
393.15 K | 1218.1 | 1219.2 | 1220.5 | 1221.8 | 1223.1 | 1225.5 | 1227.9 | 1230.3 | 1232.6 | 1234.9

— the NIST ThermoML archive (doi:10.1021/je800316b)
